One compound from US8215314B2, “Photochemical tissue bonding” (The General Hospital Corporation, priority 2000, dated 2012) can be followed below.

Entries after “also recorded” stand apart in the source; their conditions may differ.

The test system of one series is bovine achilles tendons. The series can be described thus: PTB of ruptured bovine achilles tendons in vitro, ultimate stress and stiffness. The settings on record: for Mean change in stiffness % (95% CI) / Mean change in ultimate stress % (95% CI): relative to healthy tendon. As for the experimental part:
To test the ability of PTB to quickly and effectively bond ruptured tendons, an in vitro model utilizing bovine tendons was developed. The use of bovine models in wound healing is well known by those skilled in the art. The similarities between bovine wound healing and that of humans enables one to extrapolate the therapeutic results obtained in a bovine model system to a therapeutic result in humans.
Fresh bovine achilles tendons were obtained and stored at […] until use. The tendon was cut into dumbbell-shaped 5 cm strips with the central 3 cm strip at an approximate cross-sectional area of 1 mm by 1 mm, and were irrigated constantly with phosphate buffered saline (PBS) to prevent desiccation.
Rupture of the tendon was induced by weakening the central 1 cm of the tendon with a surgical blade and mechanically pulling it apart. A solution of Rose Bengal at various concentrations (0.1, 0.5 and 1.0% weight per volume in PBS) was applied to the ends of the ruptured tendons for two minutes, after which the ruptured ends were approximated and the excess dye was removed.
The ruptured ends of the tendon were crossed over each other with an overlap of approximately 1 cm before being wrapped by several layers of tissue paper. The tissue wrapped tendon was rolled and pressed in order to approximate the ruptured ends and remove the excess dye. The tissue paper was carefully removed before the tendon was placed between two glass slides that were then clipped together.
The center of the approximated tendon was irradiated with an argon laser (514 nm), having a spot size of 1 cm in diameter, which was transmitted through an optic fiber. The laser was applied with an irradiance of 0.5, 1.0, or 1.5 W/cm^2, while the fluence of laser energy applied was 125, 250, 500, or 750 J/cm^2. The exposure time ranged from 1 min and 23 seconds to 25 minutes.
Control tendons were ruptured in the same manner, however treatments consisted of application of Rose Bengal and approximation of the tendon ends without laser irradation, approximation of the tendon ends with laser irradiation but no exposure to rose bengal, and approximation of the ends with no further treatment.
To test the effectiveness of the photochemical tissue bonding, immediately after photochemical tissue bonding, the tendon strips were attached to the fixture of a tensiometer, which was coupled to a force transducer (FIG. 17). The tendon was held at a straight and vertical position, and cyclic loading of the tendon was conducted by stretching the tendon for a magnitude of 0.5 mm for 6 cycles. The tendon was brought back to a zero deflection position before being pulled to failure at a constant speed of 100 mm/min. The peak force needed to rupture the tendon was recorded, and a typical force-deflection curve was obtained (FIG. 18). The ultimate stress and stiffness (peak force for tendon rupture normalized by the cross-sectional area, and slope of the linear region of the force-deflection curve, respectively) were calculated from the force-deflection curve.
Healthy tendons were also placed in the tensiometer, and were pulled to the point of failure. Following failure, they were treated with photochemical tissue bonding at 500 J/cm^2 fluence and again pulled to failure to study the percentage of recovery of mechanical properties. Immediately after the photochemical tissue bonding, the ultimate stress and the stiffness returned to approximately 59.66% and 52.75% of the healthy tendon, respectively (Table 1).

The test system of series [1] is partial thickness skin grafts. Briefly: Skin graft adherence after PTB, ex vivo (tensiometer). Set-up: species or system mini pigs. Conditions: RB concentration 0.1% (w/v) among 0, 0.01, 0.1, 1%. From the text: To test the ability of PTB to quickly and effectively bond skin grafts to a wound site, an ex vivo model utilizing mini pigs was developed. The use of porcine models in wound healing is well known by those skilled in the art. The similarities between porcine wound healing and that of humans enable one to extrapolate the therapeutic results obtained in a porcine model system to a therapeutic result in humans.
Partial thickness skin grafts of approximately 0.020 inch (corresponding to the thick partial-thickness grafts used in clinical situation) were harvested from mini pigs (2 to 7 months old, weight 15 to 43 kgs) after euthanasia. The grafts were temporarily stored by wrapping the graft around gauze, which was soaked in phosphate buffered saline (PBS). […]
The grafts were irradiated using a continuous-wave (CW) argon-ion laser (Innova 100; Coherent, Palo Alto, Calif.) at 514.5 nm. […] The irradiance of laser applied was 0.56 and 1.68 W/cm^2 while the dose-dependent response of the laser fluence from 126 to 504 J/cm^2 was determined. […]
Following the irradiation, the adherence of the skin grafts was tested utilizing a tensiometer (Chartillon) coupled to a force transducer (DFA2, Ametek). The applied force versus the displacement of the force plate was acquired through the transducer and recorded by computer software (Labview 4.0, National Instrument). […]

Another series concerns cornea. The series can be described thus: Examination of eyes for thermal damage after PTB (tissue shrinkage, deformation). Set-up: species or system rabbit. The settings on record: RB PTB. An excerpt:
Post-treatment, the eyes were examined for the presence of thermal damage. Tissue shrinkage and deformation around the wound site were taken as signs of thermal damage. Thermal damage to the cornea was not observed at the lowest irradiance tested (1.27 W/cm2). […] Thermal effects produced using high irradiances may produce collagen contraction resulting in distortion of the patient's vision.

Setting [2] is: argon laser 514 nm and Rose Bengal.
Where [3] appears, read: higher Rose Bengal concentrations (0.0, 0.1, 0.5, 1.0% w/v in PBS).

In the case of `O=C([O-])c1c(Cl)c(Cl)c(Cl)c(Cl)c1-c1c2cc(I)c(=O)c(I)c-2oc2c(I)c([O-])c(I)cc12.[Na+].[Na+]` [Rose Bengal], in the series on bovine achilles tendons (1.0% Rose Bengal), the “dehydration of the tendon” value is “dehydration of the tendon was noticed”. Moreover, in the series with bovine achilles tendons (Dye control (dye, no laser)), the “Mean change in stiffness % (95% CI)” value is 20.65 (10.16, 31.14) % and the “Mean change in ultimate stress % (95% CI)” value is 24.18 (6.57, 41.79) %. Also, in the series on bovine achilles tendons (Laser + Dye, 500 J/cm^2), the “Mean change in stiffness % (95% CI)” value was 52.75 (24.05, 81.45) % and the “Mean change in ultimate stress % (95% CI)” value was 59.66 (8.71, 110.61) %. In addition, in the series on bovine achilles tendons (setting [2]), the “stiffness of ruptured tendon vs controls” value is on record as “significantly increased; also recorded: significant increase” and the “ultimate stress of ruptured tendon vs controls” value is on record as “significantly increased; also recorded: significant increase”. In addition, in the series on bovine achilles tendons (setting [3]), the “stiffness of ruptured tendon” value is “significant increase” and the “ultimate stress of ruptured tendon” value is reported as “significant increase”. Further, the “skin graft adherence levels” value in series [1] is listed as “optimal increase”. Also, the “thermal damage to the cornea” value in the series with cornea (2.55 W/cm2) was “occasionally”. The “thermal damage to the cornea” value with cornea (762 to 1524 J/cm2 at 3.82 W/cm2) is “could be observed”. Besides, the “thermal damage to the cornea” value with cornea (lowest irradiance 1.27 W/cm2) is reported as “not observed”.
